Test results taken from EP0258006A2, “Monoclonal antibodies reactive with chlorinated dibenzo-p-dioxins and method of preparing and using same” (WE[…] CORPORATION, priority 1986, dated 1988).

Columns and labels:
[1] = tested on: monoclonal antibodies reactive with 2,3,7,8-TCDD in hybridoma culture supernatants (the 6 of 384 cultures positive by CIEIA); assay: competitive inhibition enzyme immunoassay (CIEIA) of hybridoma culture supernatants; assay type: binding, BALB/c mice; settings: culture supernatants preincubated with 1.0 × 10⁻⁴ M 2,3,7,8-TCDD; plates coated with BSA-adipamidoyl,3,7,8-trichlorodibenzo-p-dioxin conjugate; 6 positive cultures; 100 µM
[2] = tested on: ATCC HB 9183 antibody (monoclonal antibody, IgG1, produced by hybridoma ATCC HB 9183); assay: competitive inhibition enzyme immunoassay (CIEIA) with ATCC HB 9183 culture supernatant; assay type: binding, BALB/c mice; settings: 1:5 dilution of culture supernatant preincubated 1 hour at room temperature with various concentrations of TCDD; linear curve in Figure 3

Clc1cc2c(cc1Cl)Oc1cc(Cl)c(Cl)cc1O2 [2,3,7,8-TCDD, 2,3,7,8-tetrachlorodibenzo-p-dioxin]
inhibition of antibody binding to the solid phase-bound conjugate [1]: at least 50%
binding of antibody to free TCDD (CIEIA, Figure 3) [2]: binds directly to free TCDD
